# Assay results as given in US12276663B2, “Detection of human leukocyte antigen-A*32:01 in connection with determining drug reaction with eosinophilia and systemic symptoms (DRESS) and methods of treating bacterial infection in a subject with vancomycin-induced DRESS” (priority 2019, dated 2025).
# Where “and” joins values, the source holds several entries; their conditions need not be identical. Equal entries are not always repeated. Entries after “also recorded” stand apart in the source; their conditions may differ. Where two headings read alike, the source gives them in different places.
# Legend:
# [1] = cited from earlier work
# [2] = test system: PBMCs from HLA-A*32:01 positive vancomycin DRESS patients; assay: IFN-γ release ELISpot assay with four glycopeptide antibiotics (Example 2); type: cell-based, human
# [3] = Oral / ingestion challenge with concurrently administered medications; settings: patient 18
# [4] = test system: peripheral blood mononuclear cells from vancomycin DRESS patients; assay: Overnight IFN-γ ELISpot assay (Example 1); type: cell-based, human
# Method: (§1) Overnight IFN-γ ELISpot assays were performed in triplicate (Mabtech Kit 3420-2H) as previously described^10-12 using negative (unstimulated) and positive (anti-CD3 Mabtech antibody and/or SEB) controls.
# [5] = Intradermal skin testing to vancomycin and teicoplanin (Example 2)
# Excerpt: Patients ID 1,3 and 5 also tolerated ingestion challenges with concurrently administered medications.
# [6] = Clinical characterisation of vancomycin DRESS cases (latency); type: in vivo, human
# Excerpt: Retrospective patients were detected using Vanderbilt's BioVU repository, a deidentified electronic health record (EHR) database linked to a DNA biobank in operation since Feb. 7, 2007. Prospective patients with potential DRESS were enrolled to confirm genetic findings from the BioVU analysis using vancomycin-specific immunological studies to support clinical diagnoses. All patients prospectively enrolled from participating centers provided written or electronic consent. Institutional review board (IRB) approvals were in place for the BioVU study and for all sites contributing to the prospective study (Vanderbilt University Medical Center in Nashville (Tennessee, USA), Austin Health, Peter MacCallum Cancer Centre, and Alfred Health in Melbourne (Victoria, Australia), Fiona Stanley Hospital and Royal Perth Hospital in Perth (Western Australia, Australia)). Saliva and blood were routinely collected from prospective patients, processed and stored as repositories of DNA, peripheral blood mononuclear cells (PBMCs) and plasma.
# All patients provided written or electronic informed consent. Saliva and blood were collected, processed, and stored as repositories of DNA, peripheral blood mononuclear cells (PBMCs), and plasma.
# [7] = Intradermal skin testing (IDT) (Example 1)
# HLA-A*32:01 = HLA-A*32:01 (Homo sapiens, UniProt P04439, A270S/D101S/D185E/E176V/E277Q/F133L/G103R/G107R/G231S/H175R/I121M/I218V/I322F/K168Q/L105A/L300P/L318F/M331R/P208A/P217A/Q94H/R106L/R138Q/S129P/T104I/T323A/T345S/V100E/V321M/V358M)
# Method: High resolution four digit HLA A B C DP DR DQ typing was performed using either sequence-based typing on 454FLX or Illumina Miseq^7,8 or imputed from SNP data from HumanExome BeadChip and GWAS platforms by Expanded Multi-Ethnic Genotyping Array (MEGA^EX, Illumina), HumanOmni-Quad, HumanOmni5-Quad and Human660W-Quad using SNP2HLA as previously described^9. Imputation for HLA-A*32:01 using SNP2HLA has a reported accuracy of 99.46%9. Associations between DRESS and carriage of HLA-A/B/C/DRB1/DQA1/DQB1/DPB1 alleles at the 4-digit level were assessed by conditional logistic regression to accommodate the matching. Analyses were carried out in R version 3.4.3. (R Core Team (2017)). R: A language and environment for statistical computing. R Foundation for Statistical Computing, Vienna, Austria. R-project.org/).
# [8] = test system: peripheral blood mononuclear cells; assay: Overnight IFN-γ ELISpot assay (Example 1); type: cell-based, human; settings: thirteen controls (HLA-A*32:01 positive donors, non-DRESS ADR patients, non-HLA matched healthy donors)
# Method: as §1
# [9] = Time-to-event analysis of vancomycin-exposed BioVU cohort; type: in vivo, human
# Method: 137 of the 1,672 HLA-A*32:01 negative individuals were randomly selected to serve as an equal-sized control group. […] ADR latency, defined as the length of time from initiation of vancomycin to symptom onset, as well as any concurrent antimicrobials were documented. Analyses were carried out by Fisher's exact tests, logistic and Cox regression as appropriate in R version 3.4.3.
# [10] = PBMCs from Patient 17 (carries risk allele)
compound,measurement,setting,value
CN[C@H]1C(=O)N[C@@H]2Cc3ccc(cc3)Oc3cc4cc(c3O[C@@H]3O[C@H](C(=O)O)[C@@H](O)[C@H](O)[C@H]3NC(=O)CCCCCCCCC(C)C)Oc3ccc(cc3Cl)[C@@H](O)[C@@H]3NC(=O)[C@H](NC(=O)[C@@H]4NC(=O)[C@@H](NC2=O)c2cc(cc(O)c2Cl)Oc2cc1ccc2O)c1ccc(O)c(c1)-c1c(O[C@H]2O[C@H](CO)[C@@H](O)[C@H](O)[C@@H]2O)cc(O)cc1[C@@H](C(=O)NCCCN(C)C)NC3=O [dalbavancin],half-life,[1],14 days
same,vancomycin DRESS cases with negative ELISpot / no cross-reactivity,[2],100%
C[C@H]1COc2c(N3CCN(C)CC3)c(F)cc3c(=O)c(C(=O)O)cn1c23 [levofloxacin],oral challenge / rechallenge,[3],negative; also recorded: successfully rechallenged
CO[C@H]1/C=C/O[C@@]2(C)Oc3c(C)c(O)c4c(O)c(c(/C=N/N5CCN(C)CC5)c(O)c4c3C2=O)NC(=O)/C(C)=C\C=C\[C@H](C)[C@H](O)[C@@H](C)[C@@H](O)[C@@H](C)[C@H](OC(C)=O)[C@@H]1C [rifampin],IFN-γ ELISpot response,[2]; PBMCs from Patient 13 and other healthy donors,did not respond
same,IFN-γ ELISpot response,"[2]; PBMCs from Patient ID 2, rifampin at 5 μg/mL",positive response
same,IFN-γ ELISpot response,[4]; [10],positive response
same,IFN-γ ELISpot response,[4]; cells from Patient 4 and other healthy donors,did not respond
CCCCCCCCCCNCCN[C@@]1(C)C[C@H](O[C@H]2[C@H](Oc3c4cc5cc3Oc3ccc(cc3Cl)[C@@H](O)[C@@H](NC(=O)[C@@H](CC(C)C)NC)C(=O)N[C@@H](CC(N)=O)C(=O)N[C@H]5C(=O)N[C@H]3C(=O)N[C@H](C(=O)N[C@H](C(=O)O)c5cc(O)c(CNCP(=O)(O)O)c(O)c5-c5cc3ccc5O)[C@H](O)c3ccc(c(Cl)c3)O4)O[C@H](CO)[C@@H](O)[C@@H]2O)O[C@@H](C)[C@H]1O [telavancin],cross-reactivity with vancomycin in IFN-γ ELISpot,[2],cross-reactivity
same,vancomycin DRESS cases with a negative IFN-γ ELISpot response,[2],6/9
same,vancomycin DRESS cases with a positive IFN-γ ELISpot response,[2],three
same,vancomycin DRESS cases with immunological cross-reactivity by ELISpot,[2],13%
same,vancomycin DRESS cases with negative ELISpot / no cross-reactivity,[2],~67%
CN[C@H](CC(C)C)C(=O)N[C@H]1C(=O)N[C@@H](CC(N)=O)C(=O)N[C@H]2C(=O)N[C@H]3C(=O)N[C@H](C(=O)N[C@H](C(=O)O)c4cc(O)cc(O)c4-c4cc3ccc4O)[C@H](O)c3ccc(c(Cl)c3)Oc3cc2cc(c3O[C@@H]2O[C@H](CO)[C@@H](O)[C@H](O)[C@H]2O[C@H]2C[C@](C)(N)[C@H](O)[C@H](C)O2)Oc2ccc(cc2Cl)[C@H]1O [vancomycin],delayed intradermal testing,[5]; Patient ID 9,positive delayed intradermal testing
same,delayed intradermal testing,"[5]; Patient ID 9, 10, and 11",positive delayed intradermal testing
same,intradermal skin test response,"[5]; Patient ID 15, approximately 6 months after vancomycin DRESS",positive responses
same,median latency period from vancomycin initiation to the first symptoms of DRESS,[6]; 15 patients (Example 2),21 days
same,mean latency period to first symptoms of DRESS,[6]; 23 DRESS cases (Example 1),22.9 days
same,median latency period from vancomycin initiation to the first symptoms of DRESS,[6]; 23 DRESS cases (Example 1),21 days
same,range of latency period to first symptoms of DRESS,[6]; 23 DRESS cases (Example 1),14 to 50 days
same,intradermal challenge response,[7]; HLA-A*32:01 positive individuals not exposed to vancomycin,negative responses
same,immediate IDT response at 20 minutes,[7]; both HLA-A*32:01 positive individuals (patient 18 and control C51),strong immediate histamine response
same,delayed IDT at 24 and 48 hours,"[7]; patient 18 (history of DRESS), 0.5, 5 and 50 mg/mL",delayed positive IDT; also recorded: concentration dependent induration of the skin
same,HLA-A*32:01 carriage in vancomycin DRESS cases,HLA-A*32:01; all DRESS cases,19/23
same,HLA-A*32:01 carriage in matched vancomycin tolerant controls,HLA-A*32:01; controls matched to all cases,0/46
same,HLA-A*32:01 carriage in matched controls,HLA-A*32:01; controls matched to immunologically confirmed cases,0/24
same,HLA-A*32:01 carriage in vancomycin IFN-γ ELISpot positive patients,HLA-A*32:01; immunologically confirmed cases,11/12
same,mean vancomycin trough,"DRESS cases, n=116",17.2 µg/mL
same,range of vancomycin trough,"DRESS cases, n=116",3 to 44 µg/mL
same,mean vancomycin trough,"tolerant controls, n=644",19.6 µg/mL
same,median vancomycin trough,"tolerant controls, n=644",18 µg/mL
same,range of vancomycin trough,"tolerant controls, n=644",2 to 86 µg/mL
same,IFN-γ ELISpot concentration dependence,[2],dose dependent manner
same,vancomycin DRESS cases with a positive IFN-γ ELISpot response,[2],15 (100%)
same,IFN-γ ELISpot response,[4]; [10],did respond
same,IFN-γ ELISpot response,[4]; PBMCs from patient 21 (HLA-A*32:01 negative),persistently negative
same,DRESS cases with a positive IFN-γ ELISpot response,"[4]; PBMCs of prospectively enrolled vancomycin DRESS cases, positive >50 SFU/million cells",12/14
same,IFN-γ ELISpot concentration dependence,"[4]; patient and control PBMCs, also 5 μg/mL and 50 μg/mL, data not shown",dose-dependent response
same,IFN-γ ELISpot at repeat blood draws,"[4]; three ELISpot positive patients, time points distant from the initial reaction",repeat positive results
same,IFN-γ ELISpot response in controls,[8],none demonstrated a positive vancomycin IFN-γ ELISpot; also recorded: None of the controls released IFN-γ
same,development of DRESS or symptoms suggestive of DRESS,"[9]; 119 HLA-A*32:01 negative individuals, at least one week of uninterrupted vancomycin",none
same,estimated probability of developing DRESS,"[9]; HLA-A*32:01 carriers, at four weeks of vancomycin",19.2% and ~20%
same,median time to DRESS symptoms after vancomycin initiation,[9]; vancomycin-exposed BioVU cohort,18 days
teicoplanin,delayed intradermal testing,[5]; in vivo,negative
same,vancomycin DRESS cases with a negative IFN-γ ELISpot response,[2],13/15
same,vancomycin DRESS cases with immunological cross-reactivity by ELISpot,[2],13%
same,vancomycin DRESS cases with negative ELISpot / no cross-reactivity,[2],approximately 87%
same,cross-reactivity with vancomycin in IFN-γ ELISpot,[2]; Patient ID 8 and 15,cross-reactivity
same,IFN-γ ELISpot response,"[2]; Patient ID 9, 10, and 11",negative IFN-γ ELISpot
same,vancomycin DRESS cases with a positive IFN-γ ELISpot response,[2]; positive >50 SFU/million cells,2/15
